“Also recorded” adds a separate entry of the source.
Tested on: STZ-induced diabetic mice
Assay: STZ-induced type 1 diabetes mouse model with insulin or MDC rescue
Type: in vivo
Method: STZ-induced diabetes is a chemical modeling method for diabetes. Its full name is streptozotocin, which is a broad-spectrum antibiotic isolated from achromatic streptomycin. It can selectively damage islet 13 cells in a short period of time, causing 13 cell necrosis, resulting in varying degrees of blood insulin drop and blood sugar rise, resulting in insulin-dependent type 1 diabetes mellitus. […] Modelling criteria are non-fasting blood glucose values above 13.8 mM (250 mg/dl). The modeling steps are as follows: (4) According to the body weight, mice in the model group were injected intraperitoneally with 2% STZ-citric acid solution (160 mg/kg), and the mice in the control group were intraperitoneally injected with the corresponding volume of citrate buffer. 2 h after the injection, the mice were fed back. […] Specific steps are as follows: (3) According to the body weight, the insulin rescue group was subcutaneously injected with diluted insulin (1 U/kg/day), once a day at the same time for 7 consecutive days, and the control group was given a corresponding volume of normal saline. […] Body weight and random blood glucose were measured at different time points after injection. […] (1) Sample preparation: Store the freshly obtained mouse blood in an EDTA anticoagulation tube, stand at room temperature for 10 min, centrifuge at 1000 g for 15 min, and collect the supernatant, namely plasma. If it cannot be detected immediately, it should be subpackaged and stored at −80° C. to avoid repeated freezing. If precipitation occurs during storage, it should be fully thawed at room temperature before use, and centrifuged again.

- cardiac p53, p21, Bax/Bcl-2 and Cleaved Caspase-3 (STZ diabetic mice, heart): greatly attenuated
Substance: insulin
- blood 8-OHdG (ELISA) (STZ diabetic mice): greatly attenuated
- blood glucose concentration (STZ diabetic mice): reduces STZ-induced blood glucose elevation; also recorded: decreased from the first day of treatment and remained at a low level
- body weight loss of diabetic mice (STZ diabetic mice): promoted the gradual recovery of the weight loss; also recorded: suppressed
- blood Dkk1 (ELISA) (STZ diabetic mice, daily insulin): brought high blood Dkk1 concentrations back to basal levels; also recorded: at the basal level
- cardiac γH2AX (STZ diabetic mice, heart): decrease in γH2AX signaling
- damage to myocardial structure (HE staining) (STZ diabetic mice, heart): prevented
- translocation of cardiac β-arrestin1/2 in diabetic hearts (STZ diabetic mice, heart): able to reverse this translocation
- LRP5/6 on the cardiac membrane (STZ diabetic mice, heart, Western blot): started to be up-regulated
- translocation of insulin receptors on the cardiac membrane or in the plasma (substance alone (FIG. 19G)): does not induce translocation of insulin receptors

From US20220349876A1, “USE OF DKK1 INHIBITOR IN PREVENTION AND/OR TREATMENT OF TUMOR CACHEXIA AND DISEASES ASSOCIATED WITH DIABETES” (SHANGHAI DONGTSU BIOSCIENCES CO., LTD., priority 2019, published 2022)
